The NIST ThermoML archive (doi:10.1021/acs.jced.7b00221)

Experiment: xn = mol fraction of the nth substance listed
Conditions: 100 kPa, Liquid; for viscosity: Cone and plate viscometry; for mass density: Vibrating tube method

CCCCCCCC[P+](CC)(CC)CC.O=[N+]([O-])c1cn[n-]c1 [triethyloctylphosphonium 4-nitropyrazolide] + CCCCCCn1cc[n+](C)c1C.O=S(=O)([N-]S(=O)(=O)C(F)(F)F)C(F)(F)F
Conditions	mass density [kg/m3]	viscosity [mPa·s]
278.15 K, x1 = 0.124	–	602
278.15 K, x1 = 0.25	–	771
278.15 K, x1 = 0.401	–	1011
278.15 K, x1 = 0.5	–	1156
278.15 K, x1 = 0.6	–	1244
278.15 K, x1 = 0.751	–	1382
278.15 K, x1 = 0.9	–	1386
283.15 K, x1 = 0.124	1331.5	409
283.15 K, x1 = 0.25	1290	510
283.15 K, x1 = 0.401	–	658
283.15 K, x1 = 0.5	1206.7	742
283.15 K, x1 = 0.6	–	795
283.15 K, x1 = 0.751	1123.8	883
283.15 K, x1 = 0.9	1074.2	890
283.15 K, x1 = 1	1040.7	–
288.15 K, x1 = 0.124	1327.1	283
288.15 K, x1 = 0.25	1285.9	348
288.15 K, x1 = 0.401	–	442
288.15 K, x1 = 0.5	1203	491
288.15 K, x1 = 0.6	–	524
288.15 K, x1 = 0.751	1120.4	580
288.15 K, x1 = 0.9	1071	589
288.15 K, x1 = 1	1037.7	–
293.15 K, x1 = 0.124	1322.8	204
293.15 K, x1 = 0.25	1281.8	246
293.15 K, x1 = 0.401	–	307
293.15 K, x1 = 0.5	1199.2	338
293.15 K, x1 = 0.6	–	359
293.15 K, x1 = 0.751	1117	396
293.15 K, x1 = 0.9	1067.8	404
293.15 K, x1 = 1	1034.6	–
295.15 K, x1 = 0.124	1321	–
295.15 K, x1 = 0.25	1280.1	–
295.15 K, x1 = 0.5	1197.7	–
295.15 K, x1 = 0.751	1115.6	–
295.15 K, x1 = 0.9	1066.5	–
295.15 K, x1 = 1	1033.4	–
298.15 K, x1 = 0.124	1318.5	151
298.15 K, x1 = 0.25	1277.6	179
298.15 K, x1 = 0.401	–	220
298.15 K, x1 = 0.5	1195.5	241
298.15 K, x1 = 0.6	–	254
298.15 K, x1 = 0.751	1113.6	279
298.15 K, x1 = 0.9	1064.6	285
298.15 K, x1 = 1	1031.5	–
303.15 K, x1 = 0.124	1314.3	115
303.15 K, x1 = 0.25	1273.7	135
303.15 K, x1 = 0.401	–	163
303.15 K, x1 = 0.5	1191.8	177
303.15 K, x1 = 0.6	–	185
303.15 K, x1 = 0.751	1110.2	203
303.15 K, x1 = 0.9	1061.4	208
303.15 K, x1 = 1	1028.5	–
308.15 K, x1 = 0.124	1310.1	90
308.15 K, x1 = 0.25	1269.7	104
308.15 K, x1 = 0.401	–	124
308.15 K, x1 = 0.5	1188.1	134
308.15 K, x1 = 0.6	–	139
308.15 K, x1 = 0.751	1106.9	152
308.15 K, x1 = 0.9	1058.3	156
308.15 K, x1 = 1	1025.5	–
313.15 K, x1 = 0.124	1306	72
313.15 K, x1 = 0.25	1265.7	82
313.15 K, x1 = 0.401	–	97
313.15 K, x1 = 0.5	1184.5	103
313.15 K, x1 = 0.6	–	106
313.15 K, x1 = 0.751	1103.7	117
313.15 K, x1 = 0.9	1055.3	119
313.15 K, x1 = 1	1022.6	–
318.15 K, x1 = 0.124	1301.8	58
318.15 K, x1 = 0.25	1261.7	65
318.15 K, x1 = 0.401	–	77
318.15 K, x1 = 0.5	1180.9	82
318.15 K, x1 = 0.6	–	83
318.15 K, x1 = 0.751	1100.4	91
318.15 K, x1 = 0.9	1052.2	94
318.15 K, x1 = 1	1019.6	–
323.15 K, x1 = 0.124	1297.6	–
323.15 K, x1 = 0.25	1257.7	53
323.15 K, x1 = 0.401	–	63
323.15 K, x1 = 0.5	1177.3	66
323.15 K, x1 = 0.6	–	67
323.15 K, x1 = 0.751	1097.1	73
323.15 K, x1 = 0.9	1049.1	75
323.15 K, x1 = 1	1016.7	–
328.15 K, x1 = 0.124	1293.5	–
328.15 K, x1 = 0.25	1253.8	–
328.15 K, x1 = 0.5	1173.7	–
328.15 K, x1 = 0.751	1093.9	–
328.15 K, x1 = 0.9	1046.1	–
328.15 K, x1 = 1	1013.8	–
333.15 K, x1 = 0.124	1289.3	–
333.15 K, x1 = 0.25	1249.8	–
333.15 K, x1 = 0.5	1170.2	–
333.15 K, x1 = 0.751	1090.6	–
333.15 K, x1 = 0.9	1043	–
333.15 K, x1 = 1	1010.8	–
338.15 K, x1 = 0.124	1285.1	–
338.15 K, x1 = 0.25	1245.8	–
338.15 K, x1 = 0.5	1166.6	–
338.15 K, x1 = 0.751	1087.4	–
338.15 K, x1 = 0.9	1040	–
338.15 K, x1 = 1	1007.9	–
343.15 K, x1 = 0.124	1281	–
343.15 K, x1 = 0.25	1241.9	–
343.15 K, x1 = 0.5	1163	–
343.15 K, x1 = 0.751	1084.1	–
343.15 K, x1 = 0.9	1036.9	–
343.15 K, x1 = 1	1005	–
348.15 K, x1 = 0.124	1276.9	–
348.15 K, x1 = 0.25	1237.9	–
348.15 K, x1 = 0.5	1159.5	–
348.15 K, x1 = 0.751	1080.9	–
348.15 K, x1 = 0.9	1033.9	–
348.15 K, x1 = 1	1002.1	–
353.15 K, x1 = 0.124	1272.7	–
353.15 K, x1 = 0.25	1234	–
353.15 K, x1 = 0.5	1155.9	–
353.15 K, x1 = 0.751	1077.7	–
353.15 K, x1 = 0.9	1030.9	–
353.15 K, x1 = 1	999.2	–

CCCCCCCCCCCCCC[P+](CCCCCC)(CCCCCC)CCCCCC.N#Cc1ccc[n-]1 [trihexyl(tetradecyl)phosphonium 2-cyanopyrrolide] + CCCCCC[n+]1ccn(C)c1.O=S(=O)([N-]S(=O)(=O)C(F)(F)F)C(F)(F)F
viscosity [mPa·s]
Conditions	278.15 K	283.15 K	288.15 K	293.15 K	298.15 K	303.15 K	308.15 K	313.15 K	318.15 K	323.15 K
x1 = 0.1	337	240	176	132	101	80	64	52	–	–
x1 = 0.2	520	363	259	190	144	111	88	71	58	–
x1 = 0.3	662	455	319	229	170	129	100	79	64	52
x1 = 0.4	900	608	420	298	217	162	125	97	78	63
x1 = 0.496	1216	815	558	392	284	210	160	123	98	79
x1 = 0.6	1407	938	638	445	319	236	177	136	107	85
x1 = 0.698	1684	1117	755	525	376	275	207	158	124	99
x1 = 0.8	1749	1160	785	546	391	286	214	163	128	102
x1 = 0.898	1844	1223	830	578	414	303	228	173	135	108
x1 = 1	1764	1179	804	563	404	297	223	170	133	106

CCCCCCCCCCCCCC[P+](CCCCCC)(CCCCCC)CCCCCC.N#Cc1ccc[n-]1 [trihexyl(tetradecyl)phosphonium 2-cyanopyrrolide] + CCCCCCn1cc[n+](C)c1C.O=S(=O)([N-]S(=O)(=O)C(F)(F)F)C(F)(F)F
viscosity [mPa·s]
Conditions	278.15 K	283.15 K	288.15 K	293.15 K	298.15 K	303.15 K	308.15 K	313.15 K	318.15 K	323.15 K
x1 = 0.1	701	472	328	234	173	131	102	81	–	–
x1 = 0.201	895	598	411	290	212	159	122	96	77	63
x1 = 0.3	1056	699	474	332	240	178	136	105	83	67
x1 = 0.399	1356	897	607	422	304	224	169	130	103	82
x1 = 0.5	1594	1048	705	488	350	257	193	148	116	93
x1 = 0.601	1658	1093	734	507	361	264	197	151	117	94
x1 = 0.699	1745	1141	764	527	375	273	204	155	120	96
x1 = 0.799	1868	1221	820	566	403	294	219	167	130	103
x1 = 0.902	1930	1279	867	602	430	315	237	180	141	112
x1 = 1	1764	1179	804	563	404	297	223	170	133	106
